This is an account of results in patent publication US20250134938A1 (priority 2023, published 2025).

Converted amounts (≈) assume the structure as drawn. Like-named read-outs stand apart in the source and are kept apart here.

In one data set the test system is L. lactis CAB701 strain. Put plainly: Antibiotic resistance by E-test (MIC). It is filed as cell-based, Lactococcus lactis subsp. lactis. The protocol: The value at the end of the strip pointed by the inhibitory ring was determined as the minimum inhibitory concentration (MIC).
For data set [1], the target named is T1, porcine pancreatic lipase type II (Sus scrofa, UniProt P00591).
T1 construct: purchased Sigma
T1 sequence (P00591 1-450): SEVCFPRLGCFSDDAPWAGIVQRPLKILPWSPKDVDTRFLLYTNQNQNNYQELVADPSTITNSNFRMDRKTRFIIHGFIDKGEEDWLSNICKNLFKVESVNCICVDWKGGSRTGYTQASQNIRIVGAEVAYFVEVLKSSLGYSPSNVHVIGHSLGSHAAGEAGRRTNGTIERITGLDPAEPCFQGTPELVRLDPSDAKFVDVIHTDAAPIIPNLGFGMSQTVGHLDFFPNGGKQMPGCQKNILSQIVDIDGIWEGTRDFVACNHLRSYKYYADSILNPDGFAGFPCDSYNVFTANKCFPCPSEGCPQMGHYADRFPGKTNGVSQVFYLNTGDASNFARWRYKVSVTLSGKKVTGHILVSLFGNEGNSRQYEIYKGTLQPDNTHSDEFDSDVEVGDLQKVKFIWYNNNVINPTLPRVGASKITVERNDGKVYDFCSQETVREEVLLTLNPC
Put plainly: Inhibition of pancreatic lipase. The conditions noted are these: 1000 μg/mL; read-out: Pancreatic lipase inhibition rate (%). The data set is classed as biochemical. The protocol: 50 mg of porcine pancreatic lipase type II (Sigma) was suspended in 10 mL of 10 mM Tris-HCl buffer adjusted to pH 8.0, vortexed for 15 minutes, and centrifuged at 4000 rpm for 10 minutes at 18° C. The supernatant was used as an enzyme solution. As a substrate, p-nitrophenyl butyrate (Sigma-Aldrich (Schnelldorf, Germany)) dissolved in acetonitrile to 10 mM was used. […] Tertiary distilled water was used as a negative control group. […] After adding 10 μL of a substrate solution, followed by reaction for 5 minutes at 37° C., absorbance was measured using a microplate reader at 405 nm, which is the maximum absorbance of p-nitrophenol. Pancreatic lipase inhibition rate (%)=[(negative control absorbance-sample absorbance)/negative control absorbance]×100

Where [2] appears, read: Lactococcus lactis, CAB701STRAIN, E-test, MRS agar, 37° C., 72 hours, read-out: MIC.

On to `CN[C@H](CC(C)C)C(=O)N[C@H]1C(=O)N[C@@H](CC(N)=O)C(=O)N[C@H]2C(=O)N[C@H]3C(=O)N[C@H](C(=O)N[C@H](C(=O)O)c4cc(O)cc(O)c4-c4cc3ccc4O)[C@H](O)c3ccc(c(Cl)c3)Oc3cc2cc(c3O[C@@H]2O[C@H](CO)[C@@H](O)[C@H](O)[C@H]2O[C@H]2C[C@](C)(N)[C@H](O)[C@H](C)O2)Oc2ccc(cc2Cl)[C@H]1O` [Vancomycin], for which 0.38 µg/mL (≈ 0.262 µM) was the least that counted as inhibitory in the data set on L. lactis CAB701 strain (Lactococcus lactis, CAB701STRAIN, 72 h) (MIC). For the same compound, in the data set with L. lactis CAB701 strain (MIC against EFSA cut-off value), the Evaluation entry is reported as “Allowed”. As to `CC[C@H]1OC(=O)[C@H](C)[C@@H](O[C@H]2C[C@@](C)(OC)[C@@H](O)[C@H](C)O2)[C@H](C)[C@@H](O[C@@H]2O[C@H](C)C[C@H](N(C)C)[C@H]2O)[C@](C)(O)C[C@@H](C)C(=O)[C@H](C)[C@@H](O)[C@]1(C)O` [Erythromycin], the Evaluation result with L. lactis CAB701 strain is recorded as “Allowed”. Regarding `CC1(C)S[C@@H]2[C@H](NC(=O)[C@H](N)c3ccccc3)C(=O)N2[C@H]1C(=O)O` [Ampicillin], in the data set with L. lactis CAB701 strain, the Evaluation result is “Allowed”. In addition, the MIC with L. lactis CAB701 strain (setting [2]) was determined as 0.094 µg/mL (≈ 0.269 µM). As to Gentamicin, in the data set with L. lactis CAB701 strain (E-test), the minimum inhibitory concentration (MIC) was 3 µg/mL. Further, the “MIC” value against L. lactis CAB701 strain (E-test, MRS agar, 37° C., 72 hours) stood at 3 µg/mL. Further, the Evaluation result in the data set on L. lactis CAB701 strain (MIC against EFSA cut-off value) was “Allowed”. Regarding `CN(C)[C@@H]1C(O)=C(C(N)=O)C(=O)[C@@]2(O)C(O)=C3C(=O)c4c(O)cccc4[C@@](C)(O)[C@H]3C[C@@H]12` [Tetracycline], in the data set with L. lactis CAB701 strain (setting [2]), the minimum inhibitory concentration (MIC) is 0.094 µg/mL (≈ 0.212 µM). For the same compound, the Evaluation result with L. lactis CAB701 strain (MIC against EFSA cut-off value) is “Allowed”. In the case of `[H]/N=C(/N)N[C@H]1[C@H](O)[C@@H](O)[C@H](O[C@@H]2O[C@@H](C)[C@](O)(C=O)[C@H]2O[C@@H]2O[C@@H](CO)[C@H](O)[C@@H](O)[C@@H]2NC)[C@@H](N/C(N)=N\[H])[C@@H]1O` [Streptomycin], the Evaluation result with L. lactis CAB701 strain is recorded as “Allowed”. The MIC in the data set on L. lactis CAB701 strain (setting [2]) worked out at 16 µg/mL (≈ 27.5 µM). Regarding `CCCCCCCCCCC[C@@H](C[C@@H]1OC(=O)[C@H]1CCCCCC)OC(=O)[C@H](CC(C)C)NC=O` [orlistat], the inhibition at 1000 µg/mL (stock) in data set [1] was 28.6 ± 6.2%. With `NC[C@H]1O[C@H](O[C@H]2[C@H](O)[C@@H](O[C@H]3O[C@H](CO)[C@@H](O)[C@H](N)[C@H]3O)[C@H](N)C[C@@H]2N)[C@H](O)[C@@H](O)[C@@H]1O` [Kanamycin], in the data set on L. lactis CAB701 strain, the Evaluation result is “Allowed”. In the data set with L. lactis CAB701 strain (setting [2]), the minimum inhibitory concentration (MIC) amounted to 8 µg/mL (≈ 16.5 µM). Consider `O=C(N[C@H](CO)[C@H](O)c1ccc([N+](=O)[O-])cc1)C(Cl)Cl` [Chloramphenicol], for which the Evaluation result in the data set with L. lactis CAB701 strain is given as “Allowed”. In addition, in the data set with L. lactis CAB701 strain (setting [2]), the MIC came out at 1.5 µg/mL (≈ 4.64 µM). Taken in the same sequence, the figures for `CCC[C@@H]1C[C@@H](C(=O)N[C@@H]([C@H]2O[C@H](SC)[C@H](O)[C@@H](O)[C@H]2O)[C@H](C)Cl)N(C)C1` [Clindamycin] were “Allowed” and 0.25 µg/mL (≈ 0.588 µM).

As a reminder, the MIC is the lowest concentration found to suppress growth. A word on the inhibition: it is the drop in the measured response relative to a control, in per cent.
